The first assay deals with U2OS_Bim cells. Kind of assay: Apoptosis inhibition assay (Bim-induced apoptosis, cell viability by ATP level). It counts as cell-based. Particulars: U2OS_Bim cells, DOX-induced Bim overexpression, viability 24 h after DOX; read-out: EC50. On the procedure:
A chemical library containing 200000 compounds was screened according to the following procedure: U2OS_Bim cells (a cell line in which the BH3-only protein Bim can be inducibly expressed by the addition of Doxycycline to the growth medium)^[2] were plated in 384-well plates with 30 μl medium at a density of 500 cells per well. 16 hrs after plating, test compounds were transferred from stock plates to the assay plates with the cultured cells. Positive control (20 μM zVAD) and negative control (DMSO) were added to every plate. 1 hr after compound treatment, 0.1 ug/mL Doxycyclin (DOX) was added to induce the expression of the Bim protein. After 24 hrs, cell viability was determined by measuring the ATP levels using a Cell Titer-Glo kit (Promega, G7570) according to the manufacturer's instructions. Luminescence was recorded with a PerkinElmer EnSpire Multimode Plate Reader. Compounds that could rescue cell viability to a level above 50% were selected; these compounds were then screened a second time for assurance.
U2OS_Bim or U2OS_tBid cells were plated at a density of 3000 cells per well in 96-well plates. 24 hrs later, cells were treated with experimental compounds, zVAD (positive control) and DMSO (Negative control) for one hour. The cells were then treated with 0.1 μg/mL DOX to trigger apoptosis. 24 hours after the addition of DOX, cell viability was determined by measuring the ATP levels using a Cell Titer-Glo kit. Cell survival rate was calculated.
U2OS_Bim cells (a U2OS stable cell line transfected with a Bim transgene) were cultured in DMEM culture medium (Gibico). On day one, U2OS_Bim cells were plated in 96-well plates at a density of 3000 cells per well. On day two, cells were pretreated with compounds for one hour. Then cells were treated with 0.1 μg/mL doxycycline (DOX) to trigger apoptosis. 24 hours after DOX treatment, cell viability was determined by measuring the ATP levels using the Cell Titer-Glo kit (G7570, Promega), according to the manufacturer's instructions. Luminescence was recorded with a PerkinElmer EnSpire Multimode Plate Reader. Survived cells were normalized to those cells treated with DMSO. zVAD (20 μM) was used as a positive control. Activity data for compounds […] are represented as means f standard deviation of duplicates; activity data for compounds 187-274 are estimated based on preliminary results.
The term EC50 denotes the concentration at which the effect is half-maximal. With `COc1ccc(Cn2cc(-c3cc(C(F)(F)F)nc(S(=O)(=O)CCCC(=O)NC45CC6CC(CC(C6)C4)C5)n3)ccc2=O)cc1OC` [Compound 289], the EC50 turned out to be 0.00042 µM.

The same assay, now with this note: U2OS_Bim cells; estimated (*Est.) / preliminary results; numbering of Tables 4a/4b; read-out: EC50.
Take `Cc1cc(-c2cc(F)c(=O)n(Cc3ccc4c(c3)OCO4)c2)nc(S(=O)(=O)CCC(OCc2ccccc2F)c2ccc3ncsc3c2)n1` (centres unmarked) [Compound 396]: the EC50 is 0.001 to 1 µM.
As to `Cc1cc(-c2cc(F)c(=O)n(Cc3ccc4c(c3)OCO4)c2)nc(S(=O)(=O)CCC(OCC2CO2)c2ccccc2)n1` (centres unmarked) [Compound 419], the EC50 is 0.001 to 1 µM.
Same read-out and setting: the result for `Cc1cc(-c2cc(F)c(=O)n(Cc3ccc4nnn(C)c4c3)c2)nc(S(=O)(=O)CCCC(=O)NC23CC4CC(CC(C4)C2)C3)n1` [Compound 365] reads 0.001 to 1 µM; that for `Cc1cc(-c2ccc(=O)n(Cc3ccc4c(c3)OCCO4)n2)nc(S(=O)(=O)CCC(OCc2ccccc2F)c2ccccc2)n1` (centres unmarked) [Compound 368], 0.001 to 1 µM.
Still for that read-out and setting: with `Cc1cc(-c2cc(F)c(=O)n(Cc3ccc4c(c3)CCN4C)c2)nc(S(=O)(=O)CCC(OCc2ccccc2F)c2ccccc2)n1` (centres unmarked) [Compound 352] the figure was 0.001 to 1 µM.
Still for that read-out and setting: the result for `Cc1cc(-c2cc(F)c(=O)n(Cc3ccc4c(c3)OCN4C)c2)nc(S(=O)(=O)CCC(OCc2ccccc2F)c2ccccc2)n1` (centres unmarked) [Compound 353] reads 0.001 to 1 µM.
Consider `Cc1cc(-c2cc(F)c(=O)n(Cc3ccc4nnn(C)c4c3)c2)nc(S(=O)(=O)CCCC(=O)N(c2ccccc2)C(C)(C)C)n1` [Compound 374], for which the EC50 is 0.001 to 1 µM.
As to `Cc1cc(-c2cc(F)c(=O)n(Cc3ccc4c(c3)OCO4)c2)nc(S(=O)(=O)CCC(OCc2ccccc2F)C2CCCOC2)n1` (centres unmarked) [Compound 399], the EC50 was 0.001 to 1 µM.
Consider `Cc1cc(-c2cc(F)c(=O)n(Cc3ccc4nnn(C)c4c3)c2)nc(S(=O)(=O)CCCN(c2ccccc2)C2CC2)n1` [Compound 381], for which the EC50 is 0.001 to 1 µM.

Staying with this assay, now noted: U2OS_Bim cells; estimated based on preliminary results; numbering of Tables 4a/4b; read-out: EC50.
For `COc1ccc(Cn2cc(-c3cc(F)nc(S(C)(=O)=O)n3)ccc2=O)cc1OC` [Compound 201, 1-(3,4-dimethoxybenzyl)-5-(6-fluoro-2-(methylsulfonyl)pyrimidin-4-yl)pyridin-2 (1H)-one], the EC50 is under 10 µM.
On the same count and under the same terms, with `COc1ccc(Cn2cc(-c3cc(-c4cnco4)nc(S(C)(=O)=O)n3)ccc2=O)cc1OC` [Compound 212] the figure was under 10 µM; with `CS(=O)(=O)c1nc(-c2ccc(=O)n(Cc3ccc4ccncc4c3)c2)cc(C(F)(F)F)n1` [Compound 250], under 10 µM; with `C[S+]([O-])c1nc(-c2ccc(=O)n(Cc3ccc4ocnc4c3)c2)cc(C(F)(F)F)n1` (centres unmarked) [Compound 225], under 10 µM.
Consider `CNc1ccc(Cn2cc(-c3cc(C(F)(F)F)nc([S+](C)[O-])n3)ccc2=O)cc1NC` (centres unmarked) [Compound 233], for which the EC50 was under 10 µM.
With `COc1ccc(Cn2cc(-c3cc(-c4ccc[nH]4)nc([S+](C)[O-])n3)ccc2=O)cc1OC` (centres unmarked) [Compound 205], the EC50 is under 10 µM.
As to `CCc1cc(Cn2cc(-c3cc(C(F)(F)F)nc([S+](C)[O-])n3)ccc2=O)ccc1OC` (centres unmarked) [Compound 263], the EC50 was under 10 µM.
With `COc1ccc(Cn2cc(-c3cc(C(F)(F)F)nc(S(=O)(=O)Cn4ncnn4)n3)ccc2=O)cc1OC` [Compound 195], the EC50 is under 10 µM.

The same assay, now with this note: U2OS_Bim cells; means of duplicates; numbering of Tables 4a/4b.
Regarding `C#CCOc1cc(Cn2cc(-c3cc(C(F)(F)F)nc(S(C)(=O)=O)n3)ccc2=O)ccc1OC` [Compound 129, 1-(4-methoxy-3-(prop-2-yn-1-yloxy)benzyl)-5-(2-(methylsulfonyl)-6-(trifluoromethyl)pyrimidin-4-yl)pyridin-2 (1H)-one], the EC50 lay within 0.001 to 1 µM.

Staying with this assay, now noted: U2OS_Bim cells; means of duplicates; numbering of Tables 4a/4b; read-out: EC50.
For `CS(=O)(=O)c1nc(-c2ccc(=O)n(Cc3ccc4c(c3)OCO4)c2)cc(C(F)(F)F)n1` [Compound 136, 1-(benzo[d][1,3]dioxol-5-ylmethyl)-5-(2-(methylsulfonyl)-6-(trifluoromethyl)pyrimidin-4-yl)pyridin-2 (1H)-one], the EC50 lay in the range of 0.001 to 1 µM.
Take `C[S+]([O-])c1nc(-c2ccc(=O)n(Cc3ccc(OC(F)(F)F)cc3)c2)cc(C(F)(F)F)n1` (centres unmarked) [Compound 116, 5-(2-(methylsulfinyl)-6-(trifluoromethyl)pyrimidin-4-yl)-1-(4-(trifluoromethoxy)benzyl)pyridin-2 (1H)-one]: the EC50 lay in the range of 1 to 10 µM.
Still for that read-out and setting: with `CS(=O)(=O)c1nc(-c2ccc(=O)n(Cc3cccc(Cl)c3)c2)cc(C(F)(F)F)n1` [Compound 105, 1-(3-chlorobenzyl)-5-(2-(methylsulfonyl)-6-(trifluoromethyl)pyrimidin-4-yl)pyridin-2 (1H)-one] the figure was 0.001 to 1 µM; with `COc1ccc(Cn2cc(-c3cc(C(F)(F)F)nc(S(C)(=O)=O)n3)ccc2=O)c(Cl)c1` [Compound 126, 1-(2-chloro-4-methoxybenzyl)-5-(2-(methylsulfonyl)-6-(trifluoromethyl)pyrimidin-4-yl)pyridin-2 (1H)-one], 0.001 to 1 µM; with `COc1ccc(Cn2cc(-c3cc(C(F)(F)F)nc(S(=O)(=O)Cc4ccc(-c5ccccc5)cc4)n3)ccc2=O)cc1OC` [Compound 140, 5-(2-(([1,1′-biphenyl]-4-ylmethyl)sulfonyl)-6-(trifluoromethyl)pyrimidin-4-yl)-1-(3,4-dimethoxybenzyl)pyridin-2 (1H)-one], 0.001 to 1 µM.
In the case of `COc1ccc(Cn2cc(-c3cc(CF)nc(S(=O)(=O)CCC(OCc4ccccc4)c4ccccc4)n3)ccc2=O)cc1OC` (centres unmarked) [Compound 282, 5-(2-((3-(benzyloxy)-3-phenylpropyl)sulfonyl)-6-(fluoromethyl)pyrimidin-4-yl)-1-(3,4-dimethoxybenzyl)pyridin-2 (1H)-one], the EC50 lay in the range of 0.001 to 1 µM.
Consider `C#Cc1cccc(Cn2cc(-c3cc(C(F)(F)F)nc([S+](C)[O-])n3)ccc2=O)c1` (centres unmarked) [Compound 121, 1-(3-ethynylbenzyl)-5-(2-(methylsulfinyl)-6-(trifluoromethyl)pyrimidin-4-yl)pyridin-2 (1H)-one], for which the EC50 was 0.001 to 1 µM.
Same read-out and setting: the result for `COC(=O)c1ccccc1-c1cc(C(F)(F)F)nc(S(C)(=O)=O)n1` [Compound 58, methyl 2-(2-(methylsulfonyl)-6-(trifluoromethyl)pyrimidin-4-yl)benzoate] reads under 100 µM; that for `COc1ccc(Cn2cc(-c3cc(C)nc(S(=O)(=O)CCC(C)OCc4ccccc4F)n3)cc(F)c2=O)cc1F` (centres unmarked) [Compound 305, 3-fluoro-1-(3-fluoro-4-methoxybenzyl)-5-(2-((3-((2-fluorobenzyl)oxy)butyl)sulfonyl)-6-methylpyrimidin-4-yl)pyridin-2 (1H)-one], 0.001 to 1 µM; that for `CS(=O)(=O)c1nc(-c2ccc(=O)n(Cc3ccc(Cl)cc3F)c2)cc(C(F)(F)F)n1` [Compound 124, 1-(4-chloro-2-fluorobenzyl)-5-(2-(methylsulfonyl)-6-(trifluoromethyl)pyrimidin-4-yl)pyridin-2 (1H)-one], 0.001 to 1 µM.
Consider `COc1ccc(Cn2cc(-c3nc([S+]([O-])CCC(OCc4ccccc4F)c4ccccc4)nc4sccc34)cc(F)c2=O)cc1F` (centres unmarked) [Compound 301, 3-fluoro-1-(3-fluoro-4-methoxybenzyl)-5-(2-(3-(2-fluorobenzyloxy)-3-phenylpropylsulfinyl)thieno[2,3-d]pyrimidin-4-yl)pyridin-2 (1H)-one], for which the 50% effective concentration (EC50) lay in the range of 1 to 10 µM.
Take `COc1ccc(Cn2cc(-c3cc(C(F)(F)F)nc(S(=O)(=O)CCCC(=O)NC45CC6CC(CC(C6)C4)C5)n3)ccc2=O)cc1OC` [Compound 289]: the EC50 lay within 0.001 to 1 µM.
The same measure, in the same setting: with `COc1ccc(Cn2cc(-c3cc(C(F)F)nc(S(=O)(=O)c4cccc(N)c4)n3)ccc2=O)cc1OC` [Compound 180, 5-(2-((3-aminophenyl)sulfonyl)-6-(difluoromethyl)pyrimidin-4-yl)-1-(3,4-dimethoxybenzyl)pyridin-2 (1H)-one] the figure was 0.001 to 1 µM.

The record behind these values is US11725000B2, “Apoptosis inhibitors” (National Institute of Biological Sciences, Beijing, priority 2017, dated 2023).
